{
  "source": "patent US8048621B2",
  "about": "“Biological markers predictive of anti-cancer response to insulin-like growth factor-1 receptor kinase inhibitors” (OSI Pharmaceuticals, LLC, priority 2007, dated 2011)",
  "type_in_all_cases": "cell-based, human",
  "key": {"[1]": {"tested_on": "H441 cells", "assay": "Cell-Titer Glo cell viability / growth inhibition", "conditions": "H441 NSCLC cell line", "description": "(§1) The NSCLC lines with IGF-1R, H292, H358, H322, H441, A549, Calu6, H460, H1703 and SW1573 were cultured in the appropriate ATCC recommended supplemented media. Cell extracts were prepared by detergent lysis ((50 mM Tris-HCl, pH8, 150 mM NaCl, 1% NP-40, 0.5% NaDeoxycholate, 0.1% SDS) containing protease and phosphatase inhibitors. The soluble protein concentration was determined by micro-BSA assay (Pierce, Rockford Ill.).\n(§2) IGF-1R inhibitor Compound 66 (i.e. 3-(3-Azetidin-1-ylmethyl-cyclobutyl)-1-(2-phenyl-quinolin-7-yl)-imidazo[1,5-a]pyrazin-8-ylamine; see structure below) stock concentration was 10 mM in 100% DMSO (dimethyl sulfoxide). Serial dilutions (1:3 or 1:4) were used to establish the 50% inhibitory dose of IGF-1R inhibitor. Before dosing, inhibitor was diluted in 100% DMSO, and then added to the cells at desired final concentrations in duplicates. The final DMSO concentration was between 0.3-0.5%. Compound 66 was synthesized by the methods described in published International patent application number WO 2005/097800 A1.\n(§3) For measuring cell viability, Cell-Titer Glo assay was used, which is available as a kit from Promega. The basis of the assay is a luminescent quantitation of ATP present in a cell culture plate well. In essence, the greater the number of viable cells in the well, the greater the level of ATP present. The assay utilizes a substrate that binds ATP to produce a luminescent signal, which can be read on a luminometer. Unless otherwise noted, the manufacturer's instructions were followed exactly. Briefly, on Day 1, cells were plated in 120 μl of 10% serum-containing growth media at a density of 4000 cells/well in a white polystyrene 96 well assay plate. On day 2, cells were treated with 15 μl of 10× concentration of the IGF-1R inhibitor (e.g. Compound 66, PQIP) or DMSO alone for a final well volume of […]. After 72 h incubation with the inhibitor, the cells were assayed. Results were calculated as a fraction of the DMSO controlled cells."}, "[2]": {"tested_on": "A549 cells", "assay": "Cell-Titer Glo cell viability / growth inhibition", "conditions": "A549 NSCLC cell line", "description": "as §1, §2, §3"}, "[3]": {"tested_on": "H358 cells", "assay": "Cell-Titer Glo cell viability / growth inhibition", "conditions": "H358 NSCLC cell line", "description": "as §1, §2, §3"}, "[4]": {"tested_on": "H460 cells", "assay": "Cell-Titer Glo cell viability / growth inhibition", "conditions": "H460 NSCLC cell line", "description": "as §1, §2, §3"}, "[5]": {"tested_on": "H292 cells", "assay": "Cell-Titer Glo cell viability / growth inhibition", "conditions": "H292 NSCLC cell line", "description": "as §1, §2, §3"}, "[6]": {"tested_on": "SW1573 cells", "assay": "Cell-Titer Glo cell viability / growth inhibition", "conditions": "SW1573 NSCLC cell line", "description": "as §1, §2, §3"}, "[7]": {"tested_on": "panel comprised of 28 tumor cell lines (colorectal, breast, pancreatic, NSCLC, head and neck)", "assay": "Cell-Titer Glo growth inhibition, tumor cell line panel", "description": "The effect of 3 μM PQIP on cell growth for a panel of 26 tumor cell lines is shown. The EMT status for the cell lines is indicated, and those tumor cell lines which harbor a known activating mutation in PI3K are marked by a *. EMT status is defined here according to the transcriptional activity of CDH1, the gene encoding E-Cadherin, indicated by either the methylation status of the CDH1 promoter or the presence of CDH1 gene transcriptional repressor proteins (e.g. Snail, Zeb1). Methylation or high levels of transcriptional repressors is associated with silencing of CDH1, and is thus an indicator of a mesenchymal cell. Cell growth was measured using Cell Titer Glo (Promega), and measurements were taken 72 hours after dosing. Data are expressed as % of maximal tumor growth inhibition and are representative of three or more independent experiments. […]\nFor measuring cell viability, Cell-Titer Glo assay was used, which is available as a kit from Promega. The basis of the assay is a luminescent quantitation of ATP present in a cell culture plate well. […] The assay utilizes a substrate that binds ATP to produce a luminescent signal, which can be read on a luminometer. […] Results were calculated as a fraction of the DMSO controlled cells."}},
  "data": [
    {"smiles": "Nc1nccn2c1c(-c1ccc3ccc(-c4ccccc4)nc3c1)nc2[C@H]1C[C@@H](CN2CCC2)C1", "note": "[Compound 66, 3-(3-Azetidin-1-ylmethyl-cyclobutyl)-1-(2-phenyl-quinolin-7-yl)-imidazo[1,5-a]pyrazin-8-ylamine]", "values": [
      {"measurement": "sensitivity to Compound 66-mediated growth inhibition", "setting": "[1]", "value": "sensitive"},
      {"measurement": "sensitivity to Compound 66-mediated growth inhibition", "setting": "[2]", "value": "intermediate sensitivity"},
      {"measurement": "sensitivity to Compound 66-mediated growth inhibition", "setting": "[3]", "value": "sensitive"},
      {"measurement": "sensitivity to Compound 66-mediated growth inhibition", "setting": "[4]", "value": "relatively insensitive"},
      {"measurement": "sensitivity to Compound 66-mediated growth inhibition", "setting": "[5]", "value": "sensitive"},
      {"measurement": "sensitivity to Compound 66-mediated growth inhibition", "setting": "[6]", "value": "relatively insensitive"}
    ]},
    {"smiles": "CN1CCN([C@H]2C[C@@H](c3nc(-c4ccc5ccc(-c6ccccc6)nc5c4)c4c(N)nccn43)C2)CC1", "note": "[PQIP, cis-3-[3-(4-Methyl-piperazin-1-yl)-cyclobutyl]1-(2-phenyl-quinolin-7-yl)-imidazo[1,5-a]pyrazin-8-ylamine]", "values": [
      {"measurement": "inhibition at 3 µM", "setting": "[7]; Homo sapiens, 3 μM PQIP, any mesenchymal tumor cell line in the panel", "value": "≤ 50", "unit": "%"},
      {"measurement": "dose dependence of growth inhibition", "setting": "[7]; varying concentrations of PQIP, all cell lines (data not shown)", "value": "dose-dependent"}
    ]}
  ]
}
